# Activity calls are given as the source filed them. The calls are words filed in the database; no cut-off is given here.
# Legend:
# [1] = molecular target: Metabotropic glutamate receptor 5 (Rattus norvegicus, UniProt P31424); experiment: Negative allosteric modulation of rat mGlu5 receptor expressed in HEK293 cells assessed as inhibition of glutamate induced-calcium mobilization preincubated for 2.3 mins followed by glutamate addition measured after 1.7 mins by Fluo-4 AM dye based fluorescence assay; type: functional, cell-based
# [2] = molecular target: Metabotropic glutamate receptor 5 (Rattus norvegicus) (UniProt P31424); experiment: Negative allosteric modulation of rat mGlu5 receptor expressed in HEK293 cells assessed as inhibition of glutamate induced-calcium mobilization at 30 uM preincubated for 2.3 mins followed by glutamate addition measured after 1.7 mins by Fluo-4 AM dye based fluorescence assay relative to glutamate; type: functional, cell-based
# [3] = molecular target: T1, Cytochrome P450 1A2 (Homo sapiens, UniProt P05177)
# T1 sequence (P05177 whole entry): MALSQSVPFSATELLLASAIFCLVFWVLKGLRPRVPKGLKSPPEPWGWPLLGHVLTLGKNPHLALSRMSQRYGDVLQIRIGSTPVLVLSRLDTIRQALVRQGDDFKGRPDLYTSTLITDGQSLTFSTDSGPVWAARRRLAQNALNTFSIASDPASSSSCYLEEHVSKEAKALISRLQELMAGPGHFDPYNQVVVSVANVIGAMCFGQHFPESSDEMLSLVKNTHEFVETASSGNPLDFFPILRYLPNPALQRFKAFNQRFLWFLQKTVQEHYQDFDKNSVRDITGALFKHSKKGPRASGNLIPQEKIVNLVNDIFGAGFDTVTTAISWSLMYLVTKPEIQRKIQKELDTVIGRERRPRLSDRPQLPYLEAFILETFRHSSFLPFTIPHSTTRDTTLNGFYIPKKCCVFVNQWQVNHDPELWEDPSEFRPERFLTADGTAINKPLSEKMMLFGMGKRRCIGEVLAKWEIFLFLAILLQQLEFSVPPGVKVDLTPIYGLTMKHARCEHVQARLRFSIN
# [4] = molecular target: Cytochrome P450 2C9 (Homo sapiens, UniProt P11712)
# [5] = molecular target: Cytochrome P450 2D6 (Homo sapiens, UniProt P10635)
# [6] = molecular target: Cytochrome P450 3A4 (Homo sapiens, UniProt P08684)
# [7] = system: Plasma; conditions: rat, 4 h, 5 µM
# [8] = system: Plasma; conditions: human, 4 h, 5 µM
# [9] = molecular target: T2, DAT (sodium-dependent dopamine transporter) (Homo sapiens, UniProt Q01959); experiment: in vitro
# [10] = molecular target: Sodium-dependent dopamine transporter (Homo sapiens, UniProt Q01959); type: ADME, cell-based
# [11] = molecular target: T2, DAT (sodium-dependent dopamine transporter); experiment: Inhibition of full-length recombinant human DAT expressed in CHOK1 cells assessed as reduction in [3H]dopamine uptake at 10 uM pretreated for 20 mins followed by [3H]dopamine addition measured after 10 mins by scintillation counting method relative to control; type: cell-based; conditions: CHO-K1 cells expressing full-length recombinant human DAT, probe [3H]dopamine
# [12] = system: Mus musculus; experiment: Anxiolytic-like activity in Harlan CD-1 mouse marble burying model of OCD assessed as suppression of marble burying activity at 10 mg/kg, ip administered 15 mins prior to test measured over 30 mins; type: functional, organism-based
# [13] = Cmax in rat at 10 mg/kg, po; type: ADME, organism-based; design: dose 10 mg/kg, route oral; conditions: in vivo
# [14] = AUC in rat at 10 mg/kg, po; type: ADME, organism-based; conditions: in vivo
# [15] = Tmax in rat at 10 mg/kg, po; type: ADME, organism-based; conditions: in vivo
# [16] = Plasma clearance in rat at 1 mg/kg, iv; type: ADME, organism-based
# [17] = Volume of distribution at steady state in rat at 1 mg/kg, iv; type: ADME, organism-based; conditions: in vivo, read-out: Vdss
# [18] = Mean residence time in rat at 1 mg/kg, iv; type: ADME, organism-based; conditions: in vivo
# [19] = Half life in rat at 1 mg/kg, iv; type: ADME, organism-based; conditions: in vivo
# [20] = Brain to plasma partition coefficient, Kp of the compound in rat at 3 mg/kg, po; type: ADME, organism-based
# [21] = Ratio of unbound brain to plasma concentration in rat at 3 mg/kg, po; type: ADME, organism-based
# [22] = Apparent permeability of the compound across apical side to basolateral side in MDCK cells expressing MDR1 measured every 30 mins for 2 hrs; type: ADME, cell-based, Canis lupus familiaris; conditions: dog
# [23] = Apparent permeability of the compound across basolateral side to apical side in MDCK cells expressing MDR1 measured every 30 mins for 2 hrs; type: ADME, cell-based, Canis lupus familiaris; conditions: dog
# [24] = system: Brain; experiment: Fraction unbound in rat brain homogenates at 5 uM after 6 hrs by equilibrium dialysis method; type: ADME, tissue-based; conditions: brain homogenate
# [25] = Oral bioavailability in rat at 10 mg/kg; type: ADME, organism-based; conditions: in vivo
# [26] = system: Mus musculus; experiment: Anxiolytic-like activity in ip dosed Harlan CD-1 mouse marble burying model of OCD assessed as suppression of marble burying activity administered 15 mins prior to test measured over 30 mins; type: functional; conditions: Harlan CD-1, ip, read-out: MED
# [27] = molecular target: Platelet-activating factor receptor (Homo sapiens) (UniProt P25105); experiment: Displacement of [3H]PAF from human PAF at 10 uM after 3 hrs by scintillation counting method relative to control
# [28] = CHO-K1 cells expressing recombinant human DAT, probe [125I]RTI-55
# Sequence of Cytochrome P450 3A4 (P08684 whole entry): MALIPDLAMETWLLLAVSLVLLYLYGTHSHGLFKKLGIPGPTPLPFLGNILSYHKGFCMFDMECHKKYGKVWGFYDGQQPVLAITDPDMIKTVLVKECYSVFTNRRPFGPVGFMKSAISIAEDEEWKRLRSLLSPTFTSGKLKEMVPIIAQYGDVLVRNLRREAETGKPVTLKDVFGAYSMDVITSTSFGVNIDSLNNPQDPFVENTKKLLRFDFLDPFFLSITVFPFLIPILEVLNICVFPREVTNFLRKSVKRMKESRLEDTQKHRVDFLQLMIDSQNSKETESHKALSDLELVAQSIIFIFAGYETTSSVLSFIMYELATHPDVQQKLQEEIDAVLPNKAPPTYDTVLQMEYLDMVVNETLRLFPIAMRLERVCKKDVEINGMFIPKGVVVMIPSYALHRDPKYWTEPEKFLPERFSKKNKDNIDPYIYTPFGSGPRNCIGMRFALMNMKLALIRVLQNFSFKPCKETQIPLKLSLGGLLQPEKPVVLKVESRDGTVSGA
# Sequence of Metabotropic glutamate receptor 5 (Rattus norvegicus) (P31424 21-1203 limits assumed): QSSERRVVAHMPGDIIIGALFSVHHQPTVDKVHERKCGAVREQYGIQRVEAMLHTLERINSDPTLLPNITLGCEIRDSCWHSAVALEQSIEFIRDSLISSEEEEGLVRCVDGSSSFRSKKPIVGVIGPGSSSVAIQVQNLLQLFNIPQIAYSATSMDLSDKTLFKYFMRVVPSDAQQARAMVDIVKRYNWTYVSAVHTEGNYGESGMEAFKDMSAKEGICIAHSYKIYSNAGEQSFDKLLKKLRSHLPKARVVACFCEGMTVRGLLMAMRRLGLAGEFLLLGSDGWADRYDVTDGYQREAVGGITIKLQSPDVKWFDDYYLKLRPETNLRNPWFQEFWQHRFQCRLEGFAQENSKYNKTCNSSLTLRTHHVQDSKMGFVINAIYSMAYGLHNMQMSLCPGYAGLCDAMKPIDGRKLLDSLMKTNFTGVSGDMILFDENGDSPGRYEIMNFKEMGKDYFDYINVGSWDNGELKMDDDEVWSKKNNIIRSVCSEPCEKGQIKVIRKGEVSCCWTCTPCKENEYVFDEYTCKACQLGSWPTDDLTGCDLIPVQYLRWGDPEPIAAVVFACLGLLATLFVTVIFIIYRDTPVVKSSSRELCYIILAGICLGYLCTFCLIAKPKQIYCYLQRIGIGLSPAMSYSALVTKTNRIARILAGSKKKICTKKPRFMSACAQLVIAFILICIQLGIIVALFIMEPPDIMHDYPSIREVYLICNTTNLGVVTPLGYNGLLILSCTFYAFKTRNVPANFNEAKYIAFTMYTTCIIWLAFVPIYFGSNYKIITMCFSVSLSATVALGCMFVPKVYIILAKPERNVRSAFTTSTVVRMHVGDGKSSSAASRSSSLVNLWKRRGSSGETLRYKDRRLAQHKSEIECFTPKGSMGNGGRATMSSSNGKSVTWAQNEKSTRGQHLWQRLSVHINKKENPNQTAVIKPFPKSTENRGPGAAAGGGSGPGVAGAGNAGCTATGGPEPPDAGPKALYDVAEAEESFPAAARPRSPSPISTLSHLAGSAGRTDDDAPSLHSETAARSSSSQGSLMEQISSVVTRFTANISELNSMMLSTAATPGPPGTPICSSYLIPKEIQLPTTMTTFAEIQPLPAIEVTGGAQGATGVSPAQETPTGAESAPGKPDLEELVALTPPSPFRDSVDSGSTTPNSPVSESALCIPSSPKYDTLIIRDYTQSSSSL
# Sequence of Sodium-dependent dopamine transporter (Q01959 whole entry): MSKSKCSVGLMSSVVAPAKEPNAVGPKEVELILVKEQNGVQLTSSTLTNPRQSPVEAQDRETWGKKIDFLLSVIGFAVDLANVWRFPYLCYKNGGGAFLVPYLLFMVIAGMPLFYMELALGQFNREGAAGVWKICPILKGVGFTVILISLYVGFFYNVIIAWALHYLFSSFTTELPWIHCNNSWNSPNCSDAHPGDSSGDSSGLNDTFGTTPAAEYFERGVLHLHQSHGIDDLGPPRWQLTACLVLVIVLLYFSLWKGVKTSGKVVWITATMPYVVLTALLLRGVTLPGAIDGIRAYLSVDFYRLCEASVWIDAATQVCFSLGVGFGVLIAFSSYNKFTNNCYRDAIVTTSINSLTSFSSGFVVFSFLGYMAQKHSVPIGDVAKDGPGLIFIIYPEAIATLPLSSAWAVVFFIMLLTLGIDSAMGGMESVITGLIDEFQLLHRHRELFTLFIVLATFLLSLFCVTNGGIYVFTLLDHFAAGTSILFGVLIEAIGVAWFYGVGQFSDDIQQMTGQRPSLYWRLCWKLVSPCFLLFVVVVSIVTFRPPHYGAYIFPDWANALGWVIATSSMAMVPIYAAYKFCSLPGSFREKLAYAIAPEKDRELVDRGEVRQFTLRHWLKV
# T2 sequence (Q01959 whole entry): as above
# Sequence of Cytochrome P450 2D6 (P10635 whole entry): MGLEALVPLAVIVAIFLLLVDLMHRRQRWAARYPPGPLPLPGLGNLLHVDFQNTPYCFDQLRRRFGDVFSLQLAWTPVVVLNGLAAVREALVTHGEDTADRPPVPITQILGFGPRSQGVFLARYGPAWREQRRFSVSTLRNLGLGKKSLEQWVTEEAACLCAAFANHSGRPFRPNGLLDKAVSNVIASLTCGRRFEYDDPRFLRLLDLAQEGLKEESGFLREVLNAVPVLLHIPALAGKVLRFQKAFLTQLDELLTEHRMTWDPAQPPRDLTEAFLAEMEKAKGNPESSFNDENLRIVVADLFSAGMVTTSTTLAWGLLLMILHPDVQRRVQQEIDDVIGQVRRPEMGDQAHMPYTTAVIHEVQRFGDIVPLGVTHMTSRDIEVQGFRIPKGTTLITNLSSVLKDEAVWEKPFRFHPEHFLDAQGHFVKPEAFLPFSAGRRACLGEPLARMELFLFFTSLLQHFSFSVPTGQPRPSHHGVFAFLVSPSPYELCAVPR
# Sequence of Metabotropic glutamate receptor 5 (P31424 whole entry): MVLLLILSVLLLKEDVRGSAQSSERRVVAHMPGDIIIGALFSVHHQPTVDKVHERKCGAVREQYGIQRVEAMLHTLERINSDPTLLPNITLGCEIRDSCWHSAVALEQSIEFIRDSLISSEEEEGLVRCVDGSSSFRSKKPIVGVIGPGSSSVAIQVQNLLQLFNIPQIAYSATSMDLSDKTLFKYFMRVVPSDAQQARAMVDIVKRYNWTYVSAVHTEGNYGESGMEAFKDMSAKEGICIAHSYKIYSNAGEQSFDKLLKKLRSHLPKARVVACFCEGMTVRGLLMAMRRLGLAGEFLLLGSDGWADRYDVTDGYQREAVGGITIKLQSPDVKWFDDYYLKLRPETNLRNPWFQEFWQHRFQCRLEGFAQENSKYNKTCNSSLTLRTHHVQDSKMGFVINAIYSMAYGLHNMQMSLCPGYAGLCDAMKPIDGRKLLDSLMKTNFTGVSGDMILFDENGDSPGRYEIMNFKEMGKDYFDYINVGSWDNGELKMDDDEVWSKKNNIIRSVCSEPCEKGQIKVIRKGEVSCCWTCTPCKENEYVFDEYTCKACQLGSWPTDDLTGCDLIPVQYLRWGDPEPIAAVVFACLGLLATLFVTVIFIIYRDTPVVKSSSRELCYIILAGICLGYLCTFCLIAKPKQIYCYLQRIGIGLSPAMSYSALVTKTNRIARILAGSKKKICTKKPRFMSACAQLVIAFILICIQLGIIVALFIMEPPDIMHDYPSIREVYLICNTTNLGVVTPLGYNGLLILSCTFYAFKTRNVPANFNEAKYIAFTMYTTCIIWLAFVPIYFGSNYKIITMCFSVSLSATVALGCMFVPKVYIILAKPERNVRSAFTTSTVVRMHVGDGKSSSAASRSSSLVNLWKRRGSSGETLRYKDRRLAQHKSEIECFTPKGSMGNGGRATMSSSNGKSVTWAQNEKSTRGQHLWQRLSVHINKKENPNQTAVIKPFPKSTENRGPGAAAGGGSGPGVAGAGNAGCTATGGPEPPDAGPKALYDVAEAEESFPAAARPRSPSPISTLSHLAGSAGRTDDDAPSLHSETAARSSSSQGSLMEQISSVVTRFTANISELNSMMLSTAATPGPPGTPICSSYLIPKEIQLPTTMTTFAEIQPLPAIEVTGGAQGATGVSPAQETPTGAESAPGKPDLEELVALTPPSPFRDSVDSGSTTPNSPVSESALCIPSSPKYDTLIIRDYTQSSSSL
# Sequence of Cytochrome P450 2C9 (P11712 whole entry): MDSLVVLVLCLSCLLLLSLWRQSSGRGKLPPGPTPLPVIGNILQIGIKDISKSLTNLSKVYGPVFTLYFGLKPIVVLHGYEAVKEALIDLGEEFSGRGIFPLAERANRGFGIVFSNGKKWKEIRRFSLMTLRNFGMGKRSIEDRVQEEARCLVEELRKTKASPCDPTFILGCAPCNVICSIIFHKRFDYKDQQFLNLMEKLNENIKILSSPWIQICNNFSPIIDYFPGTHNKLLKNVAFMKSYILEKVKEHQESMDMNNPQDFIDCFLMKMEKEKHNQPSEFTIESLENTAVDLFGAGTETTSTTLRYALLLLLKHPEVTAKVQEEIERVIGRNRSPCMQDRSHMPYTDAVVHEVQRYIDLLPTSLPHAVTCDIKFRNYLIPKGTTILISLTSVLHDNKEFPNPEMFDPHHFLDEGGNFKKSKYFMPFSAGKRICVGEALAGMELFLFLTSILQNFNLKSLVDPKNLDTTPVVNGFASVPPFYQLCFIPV
# Sequence of Platelet-activating factor receptor (Homo sapiens) (P25105 whole entry): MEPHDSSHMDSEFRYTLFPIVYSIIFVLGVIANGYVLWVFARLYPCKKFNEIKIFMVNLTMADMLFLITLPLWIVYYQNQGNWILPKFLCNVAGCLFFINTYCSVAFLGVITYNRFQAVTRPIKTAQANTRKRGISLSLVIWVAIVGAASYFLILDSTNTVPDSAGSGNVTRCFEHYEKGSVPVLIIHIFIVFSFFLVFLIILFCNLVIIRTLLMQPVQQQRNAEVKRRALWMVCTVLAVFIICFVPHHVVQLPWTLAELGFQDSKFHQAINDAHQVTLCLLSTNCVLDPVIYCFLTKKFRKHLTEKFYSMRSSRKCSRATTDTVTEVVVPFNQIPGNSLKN
Structure (SMILES),IC50 [1],%max [2],IC50 [3],IC50 [4],IC50 [5],IC50 [6],Fu [7],Fu [8],further results
Cc1ccc(NC(=O)c2cc(Oc3cncc(F)c3)cn3ccnc23)nc1,74 nM,1.4%,800 nM,6900 nM,> 30000 nM,1900 nM,0.005,0.016,
Cc1cc(Oc2cncnc2)cc(C(=O)Nc2ccc(F)cn2)n1,,,,,,,,,Activity [12]: Active
O=C(Nc1ccc(F)cn1)c1cc(Oc2cncnc2)cn2cnnc12,324 nM,1.6%,,,,,,,
O=C(Nc1ccc(F)cn1)c1cc(Oc2cnc(F)c(F)c2)cn2ncnc12,56 nM,1.6%,> 30000 nM,> 30000 nM,> 30000 nM,23000 nM,0.023,0.031,"IC50 [10]: 2870 nM; inhibition at 3 h, 10 µM [9]: 67%"
COc1ccc(NC(=O)c2cc(Oc3cncc(F)c3)cn3ccnc23)nc1,55 nM,1.6%,1100 nM,5700 nM,> 30000 nM,2000 nM,0.014,0.028,
O=C(Nc1cccc(F)n1)c1cc(Oc2cncc(F)c2)cn2ccnc12,38 nM,1.5%,600 nM,1600 nM,24800 nM,2300 nM,0.023,0.026,
Cc1nnc2c(C(=O)Nc3ccc(F)cn3)cc(Oc3cncc(F)c3)cn12,372 nM,2.7%,,,,,,,

# More lines, main results first:
IC50 [1],%max [2],IC50 [3],IC50 [4],IC50 [5],IC50 [6],Fu [7],Fu [8],Structure (SMILES),further results
41 nM,2%,4100 nM,> 30000 nM,> 30000 nM,> 30000 nM,0.066,0.067,O=C(Nc1ccc(F)cn1)c1cc(Oc2cncc(F)c2F)cn2ncnc12,"inhibition at 3 h, 10 µM [9, 28]: 87%"
1410 nM,3.3%,,,,,,,Cc1nc2c(C(=O)Nc3ccc(F)cn3)cc(Oc3cncc(F)c3)cn2n1,
89 nM,1.1%,,,,,,,O=C(Nc1ccc(F)cn1)c1cc(Oc2cncc(Cl)c2)cn2ncnc12,
74 nM,1.5%,9900 nM,> 30000 nM,> 30000 nM,> 30000 nM,0.168,0.313,O=C(Nc1ccc(F)cn1)c1cc(Oc2cncnc2)cn2ncnc12,"IC50 [10]: > 10000 nM; inhibition at 10 min, 10 µM [11]: 42%; inhibition at 3 h, 10 µM [9, 28]: 60%"
129 nM,1.7%,,,,,,,O=C(Nc1ccc(F)cn1)c1cc(Oc2cncc(OC(F)F)c2)cn2ncnc12,
117 nM,2.2%,,,,,,,O=C(Nc1ccc(F)cn1)c1cc(Oc2cc(F)cnc2F)cn2ncnc12,
27 nM,2.3%,4300 nM,> 30000 nM,> 30000 nM,17800 nM,0.051,0.1,O=C(Nc1ccc(F)cn1)c1cc(Oc2cncc(F)c2)cn2cnnc12,"Cmax [13]: 573 nM; AUC [14]: 5.67 µM·h; Tmax [15]: 3 h; clearance [16]: 14 mL/min/kg; Vd [17]: 1.6 L/kg; MRT [18]: 1.97 h; half-life [19]: 1.32 h; Kp [20]: 1.7; K(p,uu,brain) [21]: 2.1; Papp [22]: 4.7 ×10⁻⁶ cm/s; Papp [23]: 11.1 ×10⁻⁶ cm/s; Fu [24]: 0.065; bioavailability [25]: 17%; minimal effective dose [26]: 3 mg/kg; inhibition at 3 h, 10 µM [9, 28]: 91%"
20 nM,1.6%,800 nM,5700 nM,> 30000 nM,3900 nM,0.028,0.02,O=C(Nc1ccc(F)cn1)c1cc(Oc2cncc(F)c2)cn2ccnc12,
20 nM,1.5%,15100 nM,> 30000 nM,> 30000 nM,> 30000 nM,0.066,0.071,O=C(Nc1ccc(F)cn1)c1cc(Oc2cncc(F)c2)cn2ncnc12,"Cmax [13]: 673 nM; AUC [14]: 8.3 µM·h; Tmax [15]: 3 h; clearance [16]: 11 mL/min/kg; Vd [17]: 1.6 L/kg; MRT [18]: 2.38 h; half-life [19]: 1.35 h; Kp [20]: 1.4; K(p,uu,brain) [21]: 0.6; Papp [22]: 10 ×10⁻⁶ cm/s; Papp [23]: 13.1 ×10⁻⁶ cm/s; Fu [24]: 0.028; bioavailability [25]: 20%; minimal effective dose [26]: 3 mg/kg; inhibition [27]: 55%; IC50 [10]: 730 nM; inhibition at 3 h, 10 µM [9, 28]: 89%"

# Source: ChEMBL document CHEMBL4043265, “Discovery of imidazo[1,2-a]-, [1,2,4]triazolo[4,3-a]-, and [1,2,4]triazolo[1,5-a]pyridine-8-carboxamide negative allosteric modulators of metabotropic glutamate receptor subtype 5” (Bioorg Med Chem Lett, 2017)
